Data reported in US5225411A, “Disubstituted polymethyleneimines” (priority 1990, dated 1993).
“And” between values parts separate entries of the source, which are not always exact repeats. Equal values may be shown once. Read-outs that look alike come from different tables or passages of the source.

Key:
[1] = tested on: murine leukaemia P 388/ADR 10; assay: Evaluation of the increase in cytotoxicity of adriamycin on the line P 388/ADR-10 in vitro (reversion factor); type: cell-based; details: P 388/ADR 10, resistance induced by adriamycin
[2] = tested on: murine leukaemia P388/ADR
Text: D) In Vivo Reversion of the Acquired Resistance to Medicaments
10^6 cells are implanted by the intraperitoneal route into female B6 D2 F1 mice on day 0 and treatment commences the following day in accordance with the administration schemes indicated.
The parameter measured is the survival time, allowing the calculation of T/C: [formula]
The variation in weight is calculaed; it provides information on the toxicity of the treatment. The control groups comprise from 15 to 27 animals and the treated groups from 5 to 10 animals.
Six independent experiments were carried out. The assays were performed over 4 days in accordance with the scheme D1-4 the tumour cells being implanted on DO and the reversing agent and the cytotoxic agnet being administered on D1, D2, D3, and D4.

[3] = tested on: murine leukaemia P 388/ADR 10; assay: Evaluation of the increase in cytotoxicity of adriamycin on the line P 388/ADR-10 in vitro (reversion factor); type: cell-based; details: for Reversion Factor (RF): adriamycin, P 388/ADR-10, 48 h, TOX = toxic
Experimental: In this study, the cytotoxicity of adriamycin was measured in the absence and in the presence of the reversing compound.
The compounds tested for their capacity to reverse MDR are added at the same time as the cytotoxic agent. The cells are then incubated for 48 hours.

[4] = tested on: Chinese Hamster Pulmonary Line DC-3F/AD; assay: Increase in the cytotoxicity of actinomycin D on the Chinese hamster pulmonary line DC-3F/AD; type: cell-based; details: 4 days;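 also: DC-3F/AD is an extremely resistant cell line whose resistance factor exceeds 10,000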
Text: The cytotoxic agent used was actinomycin D.
Line DC-3F/AD is an extremely resistant line. Its resistance factor is higher than 10,000.

line DC-3F/AD = assay: Flow cytometry, increase in fluorescence of ADR on the line DC-3F/AD; type: cell-based, Chinese Hamster; details: ADR 50 μM, 5 h
Experimental: (§1) By measuring that fluorescence it is possible to obtain a relative measurement of the intracellular concentration of ADR.
(§2) […] After 5 hours' incubation, the intracellular uptake of adriamycin was evaluated by FCM.
(§3) The analysis of each of the samples was carried out on a total of 10,000 cells at a speed of 1000 cells/sec.
(§4) The results were presented in the form of linear histograms of the intracellular ADR fluorescence.
(§5) Expression of the Results
(§6) For each of the histograms, the channel mean fluorescence was determined by the apparatus information system. For all experiments:
(§7) A negative control (cells without ADR) fixed the autofluorescence threshold.
(§8) A positive control (cells with ADR) determined the MEAN value=MN1.
(§9) The "test" tubes (cells with ADR and with compound) were used to determine, for each of the compounds and at each of the concentrations, the MEAN values=MN2.
(§10) The results are expressed in the form of variations from the mean fluorescence obtained for each of the "test" tubes (MN2) in relation to the mean fluorescence obtained with the […] (MNl) : VAR-MEAN=MN2 -MN1. The parameter expressed is thus the increase in the fluorescence of adriamycin in the presence of the tested compounds.

line P 388/ADR 10 = assay: Flow cytometry, increase in fluorescence of ADR on the line P 388/ADR 10; type: cell-based, murine; details: ADR 50 μM, 5 h
Experimental: as §1, §2, §3, §4, §5, §6, §7, §8, §9, §10

[5] = in vivo; cited from earlier work
[6] = ADR 2 mg/kg alone, i.p., D1-4, n=2
[7] = ADR 4 mg/kg alone, i.p., D1-4, n=6
[8] = Example 1 50 mg/kg + ADR 2 mg/kg, i.p., D1-4, n=2
[9] = Example 1 50 mg/kg + ADR 4 mg/kg, i.p., D1-4, n=2
[10] = Example 1 50 mg/kg alone, i.p., D1-4, n=2
[11] = Example 1 100 mg/kg + ADR 2 mg/kg, i.p., D1-4, n=2
[12] = Example 1 100 mg/kg + ADR 4 mg/kg, i.p., D1-4, n=6
[13] = Example 1 100 mg/kg alone, i.p., D1-4, n=6
[14] = Example 1 200 mg/kg + ADR 2 mg/kg, i.p., D1-4, n=4
[15] = Example 1 200 mg/kg alone, i.p., D1-4, n=4

COc1cccc2c1C(=O)c1c(O)c3c(c(O)c1C2=O)C[C@@](O)(C(=O)CO)C[C@@H]3O[C@H]1C[C@H](N)[C@H](O)[C@H](C)O1 [ADR, adriamycin, reference compound]
factor of resistance in relation to the sensitive line [1]: 260 | T/C, extreme values [2, 6]: 116.7-120% | T/C, mean ± s.e.m. [2, 6]: 118.3% | T/C, median [2, 6]: 118.3% | T/C, extreme values [2, 7]: 105-130% | T/C, mean ± s.e.m. [2, 7]: 115.1 ± 3.9% | T/C, median [2, 7]: 112.5% | antitumour activity ([2]; ADR alone, P388/ADR): not exhibiting any antitumour activity | T/C ([2]; ADR alone, i.p.): < 120%

C=CCNc1nc(NCC=C)nc(N2CCC(NCC(c3ccc(F)cc3)c3ccc(F)cc3)CC2)n1 [Example 1, 1-[4,6-bis(allylamino)-2-s-triazinyl]-4-[2,2-bis(p-fluorophenyl)ethylamino]piperidine]
Reversion Factor (RF) ([3]; compound 2.5 μM): 110.8 | Reversion Factor (RF) ([3]; compound 5 μM): 244.4 | Reversion Factor (RF) ([3]; compound 10 μM): 170.7 | Reversion Factor (RF) ([4]; compound 2.5 μM): 171 | Reversion Factor (RF) ([4]; compound 5 μM): 905 | Reversion Factor (RF) ([4]; compound 10 μM): 2575 | Reversion Factor (RF) ([4]; compound 20 μM): TOX | Increase in fluorescence of ADR (VAR-MEAN = MN2 - MN1) (line DC-3F/AD; compound 2 μM): 18.27 | Increase in fluorescence of ADR (VAR-MEAN = MN2 - MN1) (line DC-3F/AD; compound 5 μM): 26.13 | Increase in fluorescence of ADR (VAR-MEAN = MN2 - MN1) (line DC-3F/AD; compound 10 μM): 35.57 | Increase in fluorescence of ADR (VAR-MEAN = MN2 - MN1) (line DC-3F/AD; compound 20 μM): 43.63 | Increase in fluorescence of ADR (VAR-MEAN = MN2 - MN1) (line P 388/ADR 10; compound 2 μM): 53.1 | Increase in fluorescence of ADR (VAR-MEAN = MN2 - MN1) (line P 388/ADR 10; compound 5 μM): 74.1 | Increase in fluorescence of ADR (VAR-MEAN = MN2 - MN1) (line P 388/ADR 10; compound 10 μM): 85.49 | Increase in fluorescence of ADR (VAR-MEAN = MN2 - MN1) (line P 388/ADR 10; compound 20 μM): 78.5 | T/C, extreme values [2, 8]: 120-141.7% | T/C, mean ± s.e.m. [2, 8]: 130.9% | T/C, median [2, 8]: 130.9% | T/C, extreme values [2, 9]: 116.7-140% | T/C, mean ± s.e.m. [2, 9]: 128.4% | T/C, median [2, 9]: 128.4% | T/C, extreme values [2, 10]: 90-108.3% | T/C, mean ± s.e.m. [2, 10]: 99.2% | T/C, median [2, 10]: 99.2% | T/C, extreme values [2, 11]: 116.7-140% | T/C, mean ± s.e.m. [2, 11]: 128.4% | T/C, median [2, 11]: 128.4% | T/C, extreme values [2, 12]: 120-150% | T/C, mean ± s.e.m. [2, 12]: 134.2 ± 4.4% | T/C, median [2, 12]: 134.2% | T/C, extreme values [2, 13]: 85-100% | T/C, mean ± s.e.m. [2, 13]: 91.7 ± 2.8% | T/C, median [2, 13]: 90% | increase in activity as a result of the compound of Example 1 ([2]; Example 1 200 mg/kg + ADR 2 mg/kg, i.p.): 30.6% | T/C, extreme values [2, 14]: 140-155.6% | T/C, mean ± s.e.m. [2, 14]: 148.9% and 148.9 ± 3.2% | T/C, median [2, 14]: 150% | activity ([2]; Example 1 200 mg/kg + ADR 2 mg/kg, T/C ≥ 135% good activity): good activity | T/C, extreme values [2, 15]: 80-88.9% | T/C, mean ± s.e.m. [2, 15]: 83.5 ± 2.2% | T/C, median [2, 15]: 82.5% | toxicity ([2]; Example 1 alone, 200 mg/kg, i.p., T/C ≤ 85% toxic): only moderately toxic | antitumour activity ([2]; Example 1 alone, 50 to 200 mg/kg, i.p.): does not possess any antitumour activity | activity ([2]; Example 1 at 50 and 100 mg/kg (Table V: with ADR), T/C ≥ 120% moderate activity): modest activity

COC(=O)[C@H]1[C@H]2C[C@@H]3c4[nH]c5cc(OC)ccc5c4CCN3C[C@H]2C[C@@H](OC(=O)c2cc(OC)c(OC)c(OC)c2)[C@@H]1OC [RESERPINE]
activity in reversing resistance in vitro ([3]; P 388/ADR-10, adriamycin): very good activity in vitro | Reversion Factor (RF) ([3]; compound 5 μM): 215.5 | Reversion Factor (RF) ([3]; compound 10 μM): 189 | Reversion Factor (RF) ([4]; compound 2.5 μM): 258 | Reversion Factor (RF) ([4]; compound 5 μM): 1085 | Reversion Factor (RF) ([4]; compound 10 μM): 1649 | Reversion Factor (RF) ([4]; compound 20 μM): 2024 | Increase in fluorescence of ADR (VAR-MEAN = MN2 - MN1) (line DC-3F/AD; compound 2 μM): 26.18 | Increase in fluorescence of ADR (VAR-MEAN = MN2 - MN1) (line DC-3F/AD; compound 5 μM): 29.43 | Increase in fluorescence of ADR (VAR-MEAN = MN2 - MN1) (line DC-3F/AD; compound 10 μM): 31.73 | Increase in fluorescence of ADR (VAR-MEAN = MN2 - MN1) (line DC-3F/AD; compound 20 μM): 29.95 | Increase in fluorescence of ADR (VAR-MEAN = MN2 - MN1) (line P 388/ADR 10; compound 2 μM): 73.46 | Increase in fluorescence of ADR (VAR-MEAN = MN2 - MN1) (line P 388/ADR 10; compound 5 μM): 80.48 | Increase in fluorescence of ADR (VAR-MEAN = MN2 - MN1) (line P 388/ADR 10; compound 10 μM): 91.90 | Increase in fluorescence of ADR (VAR-MEAN = MN2 - MN1) (line P 388/ADR 10; compound 20 μM): 85.39 | toxicity [5]: high degree of toxicity
